ChEMBL document CHEMBL1201862, “PubChem BioAssay data set” (2004)
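Growth conditions: 96-well plates. Treatment: test compound, 48 hours, 5 concentrations. Analysis: linear interpolation between bracketing concentrations; unreached endpoints set to highest concentration. GI50 marks 50% less growth.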 The source made the active and inactive calls. No stated cut-off is given here; in the data, active = GI50 up to about 1.1 µM and inactive = higher.

Tests used:
Assay in all cases: NCI anticancer screen, dose series, 48 h
SF-539 = tested on: SF-539
NCI-H23 = tested on: NCI-H23
Malme-3M = tested on: Malme-3M
COLO 205 = tested on: COLO 205
SW-620 = tested on: SW-620
SF-295 = tested on: SF-295
SK-MEL-28 = tested on: SK-MEL-28
SNB-78 = tested on: SNB-78
DMS-273 = tested on: DMS-273
CAKI-1 = tested on: CAKI-1
UACC-62 = tested on: UACC-62
HCC 2998 = tested on: HCC 2998
LOX IMVI = tested on: LOX IMVI
SK-OV-3 = tested on: SK-OV-3
SK-MEL-5 = tested on: SK-MEL-5
SNB-75 = tested on: SNB-75
RPMI-8226 = tested on: RPMI-8226
OVCAR-5 = tested on: OVCAR-5
HOP-18 = tested on: HOP-18
A498 = tested on: A498
HCT-15 = tested on: HCT-15
HT-29 = tested on: HT-29
A549 = tested on: A549
UACC-257 = tested on: UACC-257
HOP-92 = tested on: HOP-92
M14 = tested on: M14
IGROV-1 = tested on: IGROV-1
KM-20L2 = tested on: KM-20L2
EKVX = tested on: EKVX
OVCAR-8 = tested on: OVCAR-8
KM12 = tested on: KM12
OVCAR-4 = tested on: OVCAR-4
LXFL 529 = tested on: LXFL 529
DMS-114 = tested on: DMS-114
XF498 = tested on: XF498
SF-268 = tested on: SF-268
786-0 = tested on: 786-0
SNB-19 = tested on: SNB-19
U-251 = tested on: U-251
HCT-116 = tested on: HCT-116
OVCAR-3 = tested on: OVCAR-3
NCI-H522 = tested on: NCI-H522
DLD-1 = tested on: DLD-1
HOP-62 = tested on: HOP-62
TK-10 = tested on: TK-10
ACHN = tested on: ACHN
SN12C = tested on: SN12C
RXF 393 = tested on: RXF 393
NCI-H226 = tested on: NCI-H226
UO-31 = tested on: UO-31
M19-MEL = tested on: M19-MEL
NCI-H460 = tested on: NCI-H460
SK-MEL-2 = tested on: SK-MEL-2
MOLT-4 = tested on: MOLT-4
SR = tested on: SR
K562 = tested on: K562
CCRF-CEM = tested on: CCRF-CEM
HL-60 = tested on: HL-60

Measured: GI50

CC1=C(C(=O)CC(=O)C(=O)Nc2ccc(C)c(C)c2)Sc2ccccc2N1
> 100 µM: HCT-15
inactive: SF-539 > 100 µM | NCI-H23 > 100 µM | Malme-3M > 100 µM | COLO 205 > 100 µM | SW-620 > 100 µM | SF-295 > 100 µM | SK-MEL-28 > 100 µM | SNB-78 > 100 µM | DMS-273 > 100 µM | CAKI-1 > 100 µM | UACC-62 > 100 µM | HCC 2998 > 100 µM | LOX IMVI > 100 µM | SK-OV-3 > 100 µM | SK-MEL-5 > 100 µM | SNB-75 > 100 µM | RPMI-8226 > 100 µM | OVCAR-5 > 100 µM | HOP-18 > 100 µM | A498 > 100 µM | HT-29 > 100 µM | A549 > 100 µM | UACC-257 > 100 µM | HOP-92 > 100 µM | M14 > 100 µM | IGROV-1 > 100 µM | KM-20L2 > 100 µM | EKVX > 100 µM | OVCAR-8 > 100 µM | KM12 > 100 µM | OVCAR-4 > 100 µM | LXFL 529 > 100 µM | DMS-114 > 100 µM | XF498 > 100 µM | SF-268 > 100 µM | 786-0 > 100 µM | SNB-19 > 100 µM | U-251 > 100 µM | HCT-116 > 100 µM | OVCAR-3 > 100 µM | NCI-H522 > 100 µM | DLD-1 > 100 µM | HOP-62 > 100 µM | TK-10 > 100 µM | ACHN > 100 µM | SN12C > 100 µM | RXF 393 > 100 µM | NCI-H226 > 100 µM | UO-31 > 100 µM | M19-MEL > 100 µM | NCI-H460 > 100 µM

C/C(=N\NC(N)=S)c1ccc(C2CCCCC2)cc1
inactive: SF-539 19.8 µM | NCI-H23 16.9 µM | Malme-3M 18.5 µM | COLO 205 12 µM | SF-295 4.56 µM | SK-MEL-28 16.6 µM | SNB-78 25.9 µM | CAKI-1 25.6 µM | UACC-62 14.2 µM | HCC 2998 16.4 µM | SK-MEL-2 13.5 µM | SK-OV-3 32 µM | RPMI-8226 22.2 µM | OVCAR-5 11.1 µM | HOP-18 32.1 µM | HT-29 10.5 µM | A549 43.4 µM | MOLT-4 4.58 µM | M14 9.59 µM | SR 21.4 µM | IGROV-1 12 µM | KM-20L2 14.7 µM | EKVX 71.4 µM | OVCAR-8 15 µM | KM12 15.9 µM | OVCAR-4 14.4 µM | DMS-114 7.03 µM | K562 12.2 µM | SF-268 > 100 µM | 786-0 13.6 µM | SNB-19 40.5 µM | U-251 19 µM | HCT-116 14.4 µM | OVCAR-3 14.6 µM | HOP-62 37.2 µM | TK-10 26 µM | RXF 393 12.6 µM | UO-31 13 µM | M19-MEL 27.5 µM
active: XF498 0.113 µM

Cc1ccc(Nc2nc3c(s2)C(=O)c2ccccc2C3=O)c(C)c1
17.5 µM: HCT-15
inactive: SF-539 17.5 µM | NCI-H23 10.1 µM | Malme-3M 13.6 µM | COLO 205 18.9 µM | SW-620 20 µM | SF-295 15.3 µM | SK-MEL-28 16.8 µM | SNB-78 15.2 µM | DMS-273 19.6 µM | CAKI-1 14.2 µM | UACC-62 13.8 µM | HCC 2998 17.2 µM | SK-MEL-2 13.7 µM | LOX IMVI 13.3 µM | SK-OV-3 29.6 µM | SK-MEL-5 13.1 µM | SNB-75 15.8 µM | RPMI-8226 12.1 µM | OVCAR-5 19.8 µM | HOP-18 4.57 µM | A498 34 µM | CCRF-CEM 4.13 µM | HT-29 20.9 µM | A549 16.6 µM | UACC-257 8.13 µM | MOLT-4 3.94 µM | HOP-92 9.48 µM | M14 14.3 µM | IGROV-1 16.4 µM | KM-20L2 37.3 µM | EKVX 18.3 µM | OVCAR-8 15.7 µM | HL-60 2.19 µM | KM12 16 µM | OVCAR-4 12.2 µM | LXFL 529 15 µM | DMS-114 8.59 µM | XF498 17.3 µM | K562 10.9 µM | SF-268 11.1 µM | 786-0 17.5 µM | SNB-19 14.6 µM | U-251 18.9 µM | OVCAR-3 13.7 µM | NCI-H522 3.14 µM | DLD-1 15.1 µM | HOP-62 16.5 µM | TK-10 21.8 µM | ACHN 15.7 µM | SN12C 16.9 µM | RXF 393 15.6 µM | NCI-H226 12.1 µM | UO-31 14.3 µM | M19-MEL 2.37 µM | NCI-H460 22.2 µM
